From patent publication US20260315436A1, “METHOD OF TREATING DISORDERS WITH SURF1 MALFUNCTION” (Cure Mito Foundation, priority 2023, published 2026)

How the values were obtained:
[1] = system: shy1Δ knockout mutants; assay: Yeast drug repurposing screen, shy1Δ knockout mutants (haploid/diploid not separated); format: cell-based; details: FIG. 12, inactive statins; test not named
Source text: An aim of the present disclosure is to identify SURF1 Leigh Syndrome drug repurposing clinical candidates using a rapid turnaround, multi-species phenotypic screening approach that starts with the development and phenotypic characterization of genetically personalized yeast strains—“patient avatars”—and culminates in a drug repurposing screen, a process previously published for PMM2-CDG in Lao et al., 2019 Feb 7; 9(2):413423. […] Slow growth can be rescued in a pathway-agnostic high-throughput chemical suppressor screen. As in the case of PMM2-CDG, the SURF1 yeast ortholog, gene identifier SHY1, is essential undergrowth conditions that require functional mitochondria, i.e., respiration. The yeast species Yarrowia lipolytica was used for the screen since it is an obligate aerobe (requires oxygen to grow), contains a fully functional electron transport chain, and has already been prototyped in a drug repurposing screen (Perlstein 2020). A 384-well-plate growth-based assay with appropriate positive and negative controls was designed and optimized for a drug repurposing screen (~5,000 compounds). The drug repurposing screen for mitochondrial diseases involving complex IV deficiency is described herein. A general yeast screening method was discussed in Perlstein, Drug repurposing for mitochondrial diseases using a pharmacological model of complex I deficiency in the yeast Yarrowia lipolytica, bioRxiv, (2020), see https://www.biorxiv.org/content/10.1101/2020.01.08.899666v1.
Yeast cells completely lacking SURF1 are unable to grow in conditions that require their mitochondria to produce energy. Knocking out the SURF1 ortholog in yeast—SHY1—results in loss of the ability of the knockout mutant to grow on a non-fermentable carbon source, e.g., lactate or glycerol, that requires functional mitochondria. A shy1Δ knockout mutant is incapable of growing on YEPG, or yeast media spiked with ethanol and glycerol as the sole non-fermentable carbon sources.
A unique hit signature was identified using the pilot screen of ~2,500 known drugs. A drug repurposing screen was performed. BY4741 and BY4742 are wildtype haploid controls, BY4743 is the wildtype diploid control. PY14 and PY15 are haploid shy1Δ knockout mutants of each yeast mating type. PY16 is the diploid SHY1/shy1Δ heterozygous mutant, which grows just like BY4743. PY17 is the diploid homozygous shy1Δ knockout mutant. FIG. 20.
FIG. 22, FIG. 23, FIG. 24A, FIG. 24B. It is thought that the hits act by stabilizing cytochrome c oxidase.
The discernible red triangles are the hits; the larger the triangles, the more statistically significant the result. […] FIG. 25A and FIG. 25B. Haploid and diploid SURF1 deficient mutants were screened. The positive control is a wildtype (unmutated) yeast strain. […]

[2] = system: GM28010 SURF1 mutant fibroblasts; assay: Seahorse mitochondrial stress test, fibroblast cell line GM28010 (Experiment 2, combinations and single compounds); format: cell-based, human; details: 48 h
Procedure: (§1) In order to evaluate selected compounds' impact on mitochondrial function in patient-derived fibroblasts compared to controls, three seahorse assays were conducted, Exp. 1: Fibroblast cell line GM28010—single compounds; Exp. 2. Fibroblast cell line GM28010—combination of compounds+ Single compounds; and Exp. 3: Fibroblast cell line GM28012—single compounds. Seahorse XF24 Extracellular Flux Analyzers continuously measure oxygen concentration and proton flux in the cell supernatant over time (Wu et al., 2007). The oxygen concentration and proton flux measurements are converted in OCR and ECAR values. This enables a direct quantification of mitochondrial respiration and glycolysis. The aim of the seahorse assays is to evaluate the impact of selected compounds on mitochondrial function in patient-derived fibroblasts compared to controls. Compounds used in the seahorse assays include posacanazole, sertaconazole, glabridin, zinglibroside (ginsenoside Z R1), AM281, cysteamine bitrartate, PF-06447475, losmapimod, telepravir, miltefosine, incyclinide, poziotinib, and methylene blue.
(§2) • Basal Oxygen Consumption (OCR): This reflects the cellular oxygen usage under basal conditions, encompassing both energy production (ATP turnover) and background oxygen leak from the mitochondria. • Oligomycin Injection: Oligomycin is a compound that inhibits ATP synthase, an enzyme crucial for ATP production within mitochondria. • Oligomycin-resistant Respiration: After oligomycin injection, minimal oxygen consumption persists, representing non-ATP linked oxygen leak from the mitochondria, often termed proton leak. • ATP-linked Respiration: This value is derived by subtracting the oligomycin-resistant respiration from the basal OCR. It signifies the oxygen consumption specifically linked to ATP production through mitochondrial oxidative phosphorylation. • Mitochondrial Bioenergetic Efficiency: This parameter reflects the percentage decrease in oxygen consumption observed after oligomycin injection, indicating the mitochondria's efficiency in utilizing oxygen for ATP generation. • FCCP Injection: FCCP is a chemical that disrupts the link between mitochondrial electron transport and ATP production. • Maximal Respiration: Following FCCP injection, the highest oxygen consumption rate is measured, representing the maximum capacity of the mitochondria to utilize oxygen for respiration. • Spare Respiratory Capacity: This parameter is calculated by subtracting basal respiration from maximal respiration.
GM28010 is a primary human fibroblast cell line that was obtained from patients with SURF1 Leigh syndrome. It was purchased from the Coriell Cell Repositories (Camden, N.J., repository number GM28010).
GM00038 is a primary human fibroblast cell line purchased from the Coriell Cell Repositories (Camden, N.J.; repository number GM00038). GM00038 was used as a healthy control.
(§3) Fibroblasts were grown in glucose according to recommendation. Cells were plated in XF96 plates in culture medium and plated at 10,000 cells/well. The day after plating, cells were treated with compounds. Treatments completed in glucose medium Compounds were tested at for 48 hours. The compounds were incubated at (37 C, 5% CO2) until the day of the experiment.
The fibroblasts were run at passage numbers: GM28010 SURF1 Fibroblasts P5.
The Assay Medium was 10 mM glucose or galactose DMEM supplemented with 2 mM glutamine and 1 mM pyruvate. Injection Ports for basal glucose: Port A: 2 μM oligomycin; Port B: 2.5 μM FCCP; Port C: 4 μM FCCP; and Port D: 2 μM rotenone and antimycin A. The Data were normalized to cell number per well after the run. The Hoechst-stained nuclei were counted with a Operetta High-Content Imager.

[3] = system: GM28012 SURF1 fibroblasts; assay: Seahorse mitochondrial stress test, fibroblast cell line GM28012 (Experiment 3, single compounds); format: cell-based, human; details: 48 h; for ATP-linked respiration / basal respiration: both glucose and galactose
Procedure: as §1, §2
GM28010 primary human fibroblasts obtained from patients with SURF1 Leigh syndrome were purchased from the Coriell Cell Repositories (Camden, N.J.; repository number GM28010).
GM00038 primary human fibroblasts purchased from the Coriell Cell Repositories (Camden, N.J., repository number GM00038) and were used as a healthy control.
as §3, with “plating, the” for “plating,”, “with the” for “with”, “The treatments” for “Treatments”, “and galactose medium. The compounds” for “Compounds”, “experiment. The fibroblasts were run at passage numbers: GM28012 SURF1 Fibroblasts P5.” for “experiment.”
The assay medium was 10 mM glucose or galactose DMEM supplemented with 2 mM glutamine and 1 mM pyruvate. Injection Ports for basal glucose: Port A: 2 μM oligomycin; Port B: 2.5 μM FCCP; Port C: 4 μM FCCP; and Port D: 2 μM rotenone and antimycin A.
The data were normalized to cell number per well after the run. The Hoechst-stained nuclei were counted with a Operetta High-Content Imager.

[4] = combinations at 1 μM losmapimod, 10 μM Ginsenoside Z R1, 10 μM PF-06447475, single compounds 1, 5, 10 μM
[5] = listed as Cysteamine Bitrartate

Q: With `CC[C@H](C)C(=O)O[C@H]1CCC=C2C=C[C@H](C)[C@H](CC[C@@H]3C[C@@H](O)CC(=O)O3)[C@H]21` [mevastatin] as the compound, how does the activity of statins [1] read?
A: The activity of statins was “inactive”.

Q: Which “ATP production rate through OXPHOS” value [2, 4] does the source give for `CN(C)c1ccc2nc3ccc(=[N+](C)C)cc-3sc2c1` [Methylene Blue, methylene blue] here?
A: The value was “dose-dependent decrease in ATP production through OXPHOS”.

Q: What about the “respiration (oxygen consumption rate)” value [2, 4] of the same compound?
A: Its value is “decreased oxygen consumption rates”.

Q: What about the “total ATP production rates” value [2, 4] of the same compound?
A: The value was “maintain ATP production rates”.

Q: And the “ATP production through glycolysis” value ([2]; combinations at 1 μM losmapimod, 10 μM Ginsenoside Z R1, single compounds 1, 5, 10 μM)?
A: The value was “increase in ATP production through glycolysis”.

Q: With `CCC(C)(C)C(=O)O[C@H]1C[C@@H](C)C=C2C=C[C@H](C)[C@H](CC[C@@H]3C[C@@H](O)CC(=O)O3)[C@H]21` [simvastatin] as the compound, how does the activity of statins [1] read?
A: Its activity of statins is “inactive”.

Q: How did the activity of statins [1] turn out when `CC[C@H](C)C(=O)O[C@H]1C[C@@H](C)C=C2C=C[C@H](C)[C@H](CC[C@@H]3C[C@@H](O)CC(=O)O3)[C@H]21` [lovastatin] was run?
A: The activity of statins was “inactive”.

Q: Which “ATP production through OXPHOS” value [3] does the source give for `NCCS` [cysteamine bitartrate] here?
A: The value was “Dose-dependent increase”.

Q: And the “ATP production through glycolysis” value [3]?
A: The value was “decrease ATP production through glycolysis”.

Q: What about the “total ATP production rate” value [3] of the same compound?
A: Its value is “Dose-dependent increase”.

Q: What about the ATP-linked respiration [3] of the same compound?
A: The ATP-linked respiration was “increased basal respiration and ATP-Linked respiration in a dose-dependent manner”.

Q: What about the basal respiration [3] of the same compound?
A: The basal respiration was “increased basal respiration and ATP-Linked respiration in a dose-dependent manner”.

Q: And the ATP-linked respiration [3, 5]?
A: Its ATP-linked respiration is “↑basal respiration and ATP-”.

Q: What about the basal respiration [3, 5] of the same compound?
A: Its basal respiration is “↑basal respiration and ATP-”.

Q: What about the glycolysis ([3]; glucose-cultured cells) of the same compound?
A: Its glycolysis is “dose-dependent decrease”.

Q: What about the maximal respiration ([3]; glucose-cultured cells) of the same compound?
A: The maximal respiration was “dose-dependent decrease”.

Q: And the toxicity ([3]; glucose-cultured cells)?
A: Its toxicity is “some toxicity”.

Q: What about the “ATP production through glycolysis” value [3, 5] of the same compound?
A: The value was “conditions. ↓ATP production”.

Q: What about the “respiration (oxygen consumption rate)” value [2, 4] of the same compound?
A: Its value is “did not alter oxygen consumption rates”.

Q: And the “ATP production rate through glycolysis” value ([2]; higher concentrations)?
A: Its value is “decreased”.

Q: For `CC[C@H](C)C(=O)O[C@H]1C[C@H](O)C=C2C=C[C@H](C)[C@H](CC[C@@H](O)C[C@@H](O)CC(=O)O)[C@H]21` [pravastatin], which activity of statins [1] is on record?
A: Its activity of statins is “inactive”.
